Laboratory results: patent US4031211A, “Adriamycin esters, their preparation and use” (priority 1975, dated 1977)
Like-named read-outs stand apart in the source and are kept apart here.

Experiments:
Gross leukemia = experiment: Antitumor effect on Gross leukemia in mice; settings: for TC (median survival time as compared to untreated controls) / TOX (mice which showed toxic lesions at the autopsy): Table 1
Experimental: (§1) The compounds according to the invention were tested on several in vitro systems and experimental mouse tumors, in comparison with adriamycin.

solid sarcoma 180 = settings: Table 2, i.v. per 5 days
Experimental: as §1

Ascites sarcoma 180 = experiment: Antitumor effect on ascites sarcoma 180 in mice; settings: for LTS (long term survivors, > 60 days) / TC (median survival time as compared to untreated controls) / TOX (mice which showed toxic lesions at the autopsy): Table 1
Experimental: as §1

L 1210 leukemia = experiment: Antitumor effect on L 1210 leukemia in mice
Experimental: as §1

[1] = test system: experimental mouse tumors; experiment: Antitumor/therapeutic activity and toxicity in experimental mouse tumors, overall statements; format: in vivo
Moloney sarcoma virus = experiment: Inhibition of Moloney sarcoma virus-induced foci in mouse embryo fibroblasts; format: cell-based; settings: text on Table 6, in vitro
Experimental: ^2 Inhibition of Moloney sarcoma virus-induced foci in mouse embryo
fibroblasts proliferation (treatment per 72 hours)

[2] = Table 5, first experiment, iv, days 1,2,3, 4.5 mg./kg.
[3] = Table 5, second experiment, iv, days 1,2,3, 3.5 mg./kg.
[4] = Table 4, i.p. on day 1, 2 mg./kg.
[5] = Table 4, i.p. on day 1, 4 mg./kg.
[6] = Table 4, i.p. on day 1, 8 mg./kg.
[7] = Table 1, first experiment, ip, day 1, 0.2 mg./kg.
[8] = Table 1, first experiment, ip, day 1, 1 mg./kg.
[9] = Table 1, first experiment, ip, day 1, 5 mg./kg.
[10] = Table 1, first experiment, ip, day 1, 10 mg./kg.
[11] = Table 1, second experiment, ip, day 1, 10 mg./kg.
[12] = Table 1, second experiment, ip, day 1, 12 mg./kg.
[13] = Table 1, second experiment, ip, day 1, 15 mg./kg.
[14] = Table 4, i.p. on day 1, 10 mg./kg.
[15] = Table 5, first experiment, iv, days 1,2,3, 6 mg./kg.

## COc1cccc2c1C(=O)c1c(O)c3c(c(O)c1C2=O)C[C@@](O)(C(=O)CO)C[C@@H]3O[C@H]1C[C@H](N)[C@H](O)[C@H](C)O1 [Adriamycin]
Gross leukemia; iv, days 1,2,3, 3.5 mg./kg.
  TC (median survival time as compared to untreated controls): 143%
  TOX (mice which showed toxic lesions at the autopsy): 1/10
Gross leukemia; iv, days 1,2,3, 4.5 mg./kg.
  TC (median survival time as compared to untreated controls): 171%
Gross leukemia; iv, days 1,2,3, 6 mg./kg.
  TOX (mice which showed toxic lesions at the autopsy): 4/10
Gross leukemia; Table 5, first experiment, iv, days 1,2,3, 3.5 mg./kg.
  TC: 157%
Gross leukemia; [2]
  TC: 178%
Gross leukemia; [3]
  TC: 143%
  TOX: 1/10
Gross leukemia; Table 5, second experiment, iv, days 1,2,3, 4.5 mg./kg.
  TC: 171%
Solid sarcoma 180; 2.5 mg./kg.
  % tumor growth at day 11: 42%
Solid sarcoma 180; 3 mg./kg.
  % tumor growth at day 11: 33%
Ascites sarcoma 180; ip, day 1, 1 mg./kg.
  LTS (long term survivors, > 60 days): 3/10
  TC (median survival time as compared to untreated controls): 243%
  TOX (mice which showed toxic lesions at the autopsy): 0/10
Ascites sarcoma 180; ip, day 1, 5 mg./kg.
  LTS (long term survivors, > 60 days): 3/10
  TC (median survival time as compared to untreated controls): 150%
  TOX (mice which showed toxic lesions at the autopsy): 0/10
Ascites sarcoma 180; Table 3, ip, day 1, 2 mg./kg.
  LTS: 1/10
  TC: 203%
Ascites sarcoma 180; Table 3, ip, day 1, 4 mg./kg.
  LTS: 2/10
  TC: 242%
Ascites sarcoma 180; Table 3, ip, day 1, 8 mg./kg.
  LTS: 2/10
  TC: 127%
  TOX: 8/10
Ascites sarcoma 180; [4]
  LTS: 4/10
  TC: 271%
Ascites sarcoma 180; [5]
  LTS: 5/10
  TC: 493%
  TOX: 1/10
Ascites sarcoma 180; [6]
  LTS: 3/10
  TC: 317%
  TOX: 4/10
Ascites sarcoma 180; Table 5, ip, day 1, 2 mg./kg.
  LTS: 4/10
  TC: 271%
Ascites sarcoma 180; Table 5, ip, day 1, 4 mg./kg.
  LTS: 5/10
  TC: 493%
  TOX: 1/10
Ascites sarcoma 180; Table 5, ip, day 1, 8 mg./kg.
  LTS: 3/10
  TC: 317%
  TOX: 4/10
L 1210 leukemia; [7]
  TC (median survival time as compared to untreated controls): 111%
L 1210 leukemia; [8]
  TC (median survival time as compared to untreated controls): 133%
L 1210 leukemia; [9]
  TC (median survival time as compared to untreated controls): 139%
L 1210 leukemia; [10]
  TC (median survival time as compared to untreated controls): 150%
  TOX (mice which showed toxic lesions at the autopsy): 3/10
L 1210 leukemia; [11]
  LTS (long term survivors, > 60 days): 1/10
  TC (median survival time as compared to untreated controls): 139%
  TOX (mice which showed toxic lesions at the autopsy): 1/10
L 1210 leukemia; [12]
  TC (median survival time as compared to untreated controls): 167%
  TOX (mice which showed toxic lesions at the autopsy): 2/10
L 1210 leukemia; [13]
  TC (median survival time as compared to untreated controls): 100%
  TOX (mice which showed toxic lesions at the autopsy): 6/10
L 1210 leukemia; Table 3, ip, day 1, 2.5 mg./kg.
  TC: 122%
L 1210 leukemia; Table 3, ip, day 1, 5 mg./kg.
  TC: 155%
L 1210 leukemia; Table 3, ip, day 1, 10 mg./kg.
  LTS: 2/9
  TC: 233%
  TOX: 2/9
L 1210 leukemia; Table 4, i.p. on day 1, 2.5 mg./kg.
  TC: 122%
L 1210 leukemia; Table 4, i.p. on day 1, 5 mg./kg.
  TC: 155%
L 1210 leukemia; [14]
  LTS: 2/9
  TC: 233%
  TOX: 2/9
L 1210 leukemia; Table 5, ip, day 1, 2.5 mg./kg.
  TC: 122%
L 1210 leukemia; Table 5, ip, day 1, 5 mg./kg.
  TC: 155%
L 1210 leukemia; Table 5, ip, day 1, 10 mg./kg.
  LTS: 2/9
  TC: 233%
  TOX: 2/9

## CCCCCCCCCCCC(=O)OCC(=O)OCC(=O)C1(O)Cc2c(O)c3c(c(O)c2C(OC2CC(N)C(O)C(C)O2)C1)C(=O)c1c(OC)cccc1C3=O.Cl (centres unmarked) [adriamycin-14-0-lauroyl glycolate, Adriamycin-14-0-Lauroyl Glycolate Hydrochloride]
Gross leukemia
  increase of the median survival time compared with adriamycin: higher increase of the median survival time than does adriamycin
Gross leukemia; [2]
  TC: 136%
Gross leukemia; [15]
  LTS: 2/10
  TC: 257%
Gross leukemia; Table 5, first experiment, iv, days 1,2,3, 7.5 mg./kg.
  TC: 221%
Gross leukemia; Table 5, first experiment, iv, days 1,2,3, 9 mg./kg.
  TC: 128%
Gross leukemia; Table 5, second experiment, iv, days 1,2,3, 6 mg./kg.
  TC: 193%
Gross leukemia; Table 5, second experiment, iv, days 1,2,3, 7.5 mg./kg.
  TC: 214%
[1]
  toxicity compared with adriamycin: less toxic than adriamycin
Ascites sarcoma 180
  number of long term survivors compared with adriamycin: higher number of long term survivors
Ascites sarcoma 180; Table 5, ip, day 1, 2 mg./kg.
  LTS: 4/10
  TC: 436%
Ascites sarcoma 180; Table 5, ip, day 1, 4 mg./kg.
  LTS: 8/10
  TC: 493%
Ascites sarcoma 180; Table 5, ip, day 1, 8 mg./kg.
  TC: 385%
Ascites sarcoma 180; Table 5, ip, day 1, 16 mg./kg.
  TC: 242%
Moloney sarcoma virus
  activity on Moloney Sarcoma Virus: most active among all of them
L 1210 leukemia; Table 5, ip, day 1, 2 mg./kg.
  TC: 135%
L 1210 leukemia; Table 5, ip, day 1, 4 mg./kg.
  TC: 141%
L 1210 leukemia; Table 5, ip, day 1, 8 mg./kg.
  TC: 165%
L 1210 leukemia; Table 5, ip, day 1, 16 mg./kg.
  LTS: 1/10
  TC: 200%

## CCCCCC(=O)OCC(=O)OCC(=O)C1(O)Cc2c(O)c3c(c(O)c2C(OC2CC(N)C(O)C(C)O2)C1)C(=O)c1c(OC)cccc1C3=O.Cl (centres unmarked) [adriamycin-14-0-hexanoyl glycolate, Adriamycin-14-0-Hexanoyl Glycolate Hydrochloride]
[1]
  toxicity compared with adriamycin: less toxic
[1]; tumor not given
  activity compared with adriamycin: as active as adriamycin
Ascites sarcoma 180; [4]
  LTS: 1/10
  TC: 250%
Ascites sarcoma 180; [5]
  LTS: 5/10
  TC: 493%
Ascites sarcoma 180; [6]
  LTS: 3/10
  TC: 346%
Ascites sarcoma 180; Table 4, i.p. on day 1, 16 mg./kg.
  TC: 128%
L 1210 leukemia; [4]
  TC: 133%
L 1210 leukemia; [5]
  TC: 144%
L 1210 leukemia; [6]
  LTS: 1/9
  TC: 155%

## CCCCCC(=O)SCC(=O)OCC(=O)C1(O)Cc2c(O)c3c(c(O)c2C(OC2CC(N)C(O)C(C)O2)C1)C(=O)c1c(OC)cccc1C3=O.Cl (centres unmarked) [adriamycin-14-0-hexanoyl thioglycolate, Adriamycin-14-0-Hexanoyl Thioglycolate Hydrochloride]
[1]
  toxicity compared with adriamycin: less toxic
Ascites sarcoma 180
  antitumor effect compared with adriamycin: marked anti-tumor effect, slightly lower than that of adriamycin
Ascites sarcoma 180; Table 3, ip, day 1, 2 mg./kg.
  LTS: 1/10
  TC: 153%
  TOX: 1/10
Ascites sarcoma 180; Table 3, ip, day 1, 4 mg./kg.
  LTS: 2/10
  TC: 196%
  TOX: 1/10
Ascites sarcoma 180; Table 3, ip, day 1, 8 mg./kg.
  LTS: 2/10
  TC: 177%
Ascites sarcoma 180; Table 3, ip, day 1, 16 mg./kg.
  TC: 188%
  TOX: 6/10
L 1210 leukemia
  antitumor activity compared with adriamycin: marked anti-tumor effect, slightly lower than that of adriamycin
L 1210 leukemia; Table 3, ip, day 1, 4 mg./kg.
  TC: 133%
L 1210 leukemia; Table 3, ip, day 1, 8 mg./kg.
  TC: 155%
L 1210 leukemia; Table 3, ip, day 1, 16 mg./kg.
  LTS: 2/9
  TC: 170%

## CCCCCCCCCCCCCCCCCC(=O)OCC(=O)OCC(=O)C1(O)Cc2c(O)c3c(c(O)c2C(OC2CC(N)C(O)C(C)O2)C1)C(=O)c1c(OC)cccc1C3=O.Cl (centres unmarked) [adriamycin-14-0-stearoyl glycolate, Adriamycin-14-0-Stearoyl Glycolate Hydrochloride]
Gross leukemia
  antitumor activity compared with adriamycin: as active as adriamycin
  toxicity compared with adriamycin: less toxic
Gross leukemia; iv, days 1,2,3, 4.5 mg./kg.
  TC (median survival time as compared to untreated controls): 143%
  TOX (mice which showed toxic lesions at the autopsy): 1/10
Gross leukemia; iv, days 1,2,3, 6 mg./kg.
  TC (median survival time as compared to untreated controls): 186%
Gross leukemia; iv, days 1,2,3, 7.5 mg./kg.
  TC (median survival time as compared to untreated controls): 186%
Gross leukemia; iv, days 1,2,3, 9 mg./kg.
  TC (median survival time as compared to untreated controls): 207%
Solid sarcoma 180; 2.5 mg./kg.
  % tumor growth at day 11: 58%
Solid sarcoma 180; 3 mg./kg.
  % tumor growth at day 11: 58%
Solid sarcoma 180; 3.5 mg./kg.
  % tumor growth at day 11: 52%
Solid sarcoma 180; 4 mg./kg.
  % tumor growth at day 11: 37%
Ascites sarcoma 180
  antitumor effect compared with adriamycin: not significantly different from that of adriamycin
Ascites sarcoma 180; ip, day 1, 0.3 mg./kg.
  LTS (long term survivors, > 60 days): 1/10
  TC (median survival time as compared to untreated controls): 119%
Ascites sarcoma 180; ip, day 1, 1.6 mg./kg.
  LTS (long term survivors, > 60 days): 2/10
  TC (median survival time as compared to untreated controls): 222%
  TOX (mice which showed toxic lesions at the autopsy): 1/10
Ascites sarcoma 180; ip, day 1, 7.8 mg./kg.
  LTS (long term survivors, > 60 days): 1/10
  TC (median survival time as compared to untreated controls): 187%
  TOX (mice which showed toxic lesions at the autopsy): 1/10
L 1210 leukemia
  antitumor activity compared with adriamycin: as active as adriamycin
  toxicity compared with adriamycin: less toxic
L 1210 leukemia; [7]
  TC (median survival time as compared to untreated controls): 100%
L 1210 leukemia; [8]
  TC (median survival time as compared to untreated controls): 133%
  TOX (mice which showed toxic lesions at the autopsy): 1/10
L 1210 leukemia; [9]
  TC (median survival time as compared to untreated controls): 133%
L 1210 leukemia; [10]
  TC (median survival time as compared to untreated controls): 139%
L 1210 leukemia; [11]
  TC (median survival time as compared to untreated controls): 128%
L 1210 leukemia; [12]
  TC (median survival time as compared to untreated controls): 150%
L 1210 leukemia; [13]
  TC (median survival time as compared to untreated controls): 150%
